Key:
[1] = tested on: Bacillus subtilis strain ATCC 6633 and NCTC 10073; assay: Growth curves, Bacillus subtilis; type: cell-based; conditions: compound added at 8-9 hours of growth, FIG. 1
Procedure: The compound was added at 8-9 hours, as denoted by the arrows, after the cultures had been growing. B. subtilis has a two component system that, when deleted, results in lysis and cell death.
(§1) Growth curve method. Bacteria are grown overnight in standard medium. The following morning, the cells were inoculated into fresh medium at 1% (a 1 in 100 dilution). Furanones were added either at the beginning of growth (time 0) or, as was the case for the B. subtilis experiments, the results of which are shown in FIG. 1, during the mid-logarithmic phase of growth. Growth was then monitored regularly by spectrophotometric readings, at a wavelength of 610 nm.

Staphylococcus aureus = assay: Minimum inhibitory (growth) concentration, S. aureus; type: cell-based; conditions: growth curves, OD 610 nm
Procedure: as §1, with “nm. Using the type of growth described above, the minimum growth inhibitory concentration of furanones was determined for S. aureus and Streptococcus spp. were determined for a range of compounds.” for “nm.”

[2] = tested on: CopS/CopR two component signal transduction system; assay: CopS/CopR assay (cop'-lacZ, Cu2+-induced); type: cell-based, Pseudomonas syringae pv. syringae; conditions: for cop'-lacZ expression: 0.075 mM CuSO4, 6.5 hours
Procedure: P. syringae pv syringae PS61 (pCOP38)(pPT23D) was grown on SWM media (Kinscherf and Willis, 1999) at room temperature with shaking for 48 hours. Five μg/ml streptomycin, 15 μg/ml chloramphenicol and 1.0 mM CuSO4 were added to maintain plasmids. This culture was used to inoculate 50 ml SWM media in side-arm flasks with the addition of antibiotics. These cultures were incubated at room temperature with shaking for 16 hours (OD610=0.2) at which point CuSO4 was added to a concentration of 0.075 mM (CuSO4 solution made up in MQ water).
The test compound or mixtures of compounds were dissolved in ethanol and added to cultures to give the required final concentrations. Equal volumes of ethanol were added to Cu^2+ negative and positive cultures. Cultures were incubated for 6.5 hours at room temperature with shaking before being placed on ice. Samples were then removed for β-galactosidase assays. β-galactosidase assays were carried out in the same manner as those for the Taz assay described above.
The effect of furanone compound 3 on the CopS/CopR two component signal transduction system that regulates copper resistance in Pseudomonas syringae pv. syringae (Mills et al., 1993) was assessed. […] However, there appears to be no difference in terms of lacZ expression between the two concentrations (p>0.15).

[3] = tested on: P. syringae var tomato BB27 swarming (GacS/GacA); assay: GacS/GacA assay (swarming on 0.4% agar SWM plates); type: cell-based, Pseudomonas syringae var. tomato
Procedure: P. syringae var tomato BB27 was grown overnight in SWM media at room temperature. This culture was used to stab inoculate SWM plates made up with 0.4% agar and incubated at room temperature (20° C.). The culture was also used to stab inoculate sets of SWM plates (0.4% agar) that bad been made up with 25 μg/ml and 50 μg/ml of the test compound (stock solutions made up in ethanol). These plates were also incubated at room temperature for 36 hours before being examined for swarming activity and photographed. Before use all 0.4% agar SWM plates were allowed to air-dry for two hours in a laminar flow cabinet at room temperature.
Furanones interfere with the “swarming” response of Pseudomonas syringae, which is regulated by the GacS/GacA two-component signal transduction system (Kinscherf and Willis, 1999).

Streptococcus spp. = assay: Minimum inhibitory (growth) concentration, Streptococcus spp.; type: cell-based; conditions: growth curves, OD 610 nm
Procedure: as §1, with “nm. Using the type of growth described above, the minimum growth inhibitory concentration of furanones was determined for S. aureus and Streptococcus spp. were determined for a range of compounds.” for “nm.”

S. aureus = conditions: cited from earlier work
E. faecium = conditions: cited from earlier work
Streptococcus pneumoniae = conditions: cited from earlier work
HPK NRII = HPK NRII (Escherichia coli, UniProt P0AFB5); conditions: Hilliard et al. 1999; cited from earlier work
Sequence of HPK NRII (P0AFB5 whole entry): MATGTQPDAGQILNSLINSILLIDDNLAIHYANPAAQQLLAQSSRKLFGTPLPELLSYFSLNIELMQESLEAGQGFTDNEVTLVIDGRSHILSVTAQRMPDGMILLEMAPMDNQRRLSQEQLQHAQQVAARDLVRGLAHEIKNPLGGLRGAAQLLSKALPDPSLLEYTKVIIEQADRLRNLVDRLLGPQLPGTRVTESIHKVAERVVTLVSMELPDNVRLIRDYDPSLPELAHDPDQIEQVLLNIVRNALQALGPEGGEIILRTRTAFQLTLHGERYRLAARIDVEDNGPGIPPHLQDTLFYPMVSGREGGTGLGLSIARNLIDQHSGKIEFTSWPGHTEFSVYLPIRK

S. aureus cells = conditions: cited from earlier work

In the case of `CCCCC1=C(Br)/C(=C/Br)OC1=O` [Compound 2], the “growth response (optical density)” value [1] is reported as “induction of cell lysis” and the “Minimum inhibitory (growth) concentration, Staphylococcus aureus” value (from here on “Minimum inhibitory … Staphylococcus aureus”) (Staphylococcus aureus) is reported as 1 to 10 µg/mL.
In the case of `CCC[C@@H](OC(C)=O)C1=C(Br)/C(=C/Br)OC1=O` [Compound 3], the “cop'-lacZ expression” value ([2]; 25 μg/ml) is reported as “significantly reduced”, the “cop'-lacZ expression” value ([2]; 50 μg/ml) is reported as “significantly reduced” and the growth inhibitory effects ([2]; at the concentrations used (25 and 50 μg/ml), P. syringae pv syringae) is reported as “did not have any growth inhibitory effects”. The swarming pattern ([3]; 25 μg/ml, 36 hours) was “dramatically alters the swarming pattern”, the “growth of P. syringae var. tomato” value ([3]; 50 μg/ml) was “did not inhibit the growth” and the swarming ([3]; 50 μg/ml, 36 hours) was “shut down swarming”.
With `CCC[C@@H](O)C1=C(Br)/C(=C/Br)OC1=O` [Compound 4] the “normal activity of the CopS/CopR two-component signal transduction system” value ([2]; concentration not given) was “appeared to reduce the normal activity” and the “Minimum inhibitory (growth) concentration, Streptococcus spp.” value (Streptococcus spp.) was 10 µg/mL.
With `O=C1C=C(Br)/C(=C/Br)O1` [Compound 30] the “swarming response in P. syringae” value ([3]; concentration not given) was “inhibited the swarming response”, the “Minimum inhibitory … Staphylococcus aureus” value (Staphylococcus aureus) was 1 to 20 µg/mL and the “Minimum inhibitory (growth) concentration, Streptococcus spp.” value (Streptococcus spp.) was 10 µg/mL.
In the case of `CCCCCC(Br)C1=C(Br)/C(=C/Br)OC1=O` (centres unmarked) [Compound 33], the “Minimum inhibitory … Staphylococcus aureus” value (Staphylococcus aureus) is reported as 0.5 µg/mL.
With `CCCCCC(Br)C1=CC(=C(Br)Br)OC1=O` (centres unmarked) [Compound 34] the “Minimum inhibitory … Staphylococcus aureus” value (Staphylococcus aureus) was 0.25 µg/mL.
In the case of `NC(N)=NCCc1ccc(OCCC(c2ccccc2)(c2ccccc2)c2ccccc2)cc1` [RWJ-49815], the “active concentration (antibacterial)” value (S. aureus) is given as 1 to 2 µg/mL, the “active concentration (antibacterial)” value (E. faecium) is given as 1 to 2 µg/mL and the “active concentration (antibacterial)” value (Streptococcus pneumoniae) is given as 1 to 2 µg/mL. The “autophosphorylation of the HPK NRII” value (HPK NRII) was “inhibited the autophosphorylation” and the “permeability of the membranes of S. aureus cells” value (S. aureus cells) was “caused a rapid increase in the permeability”.
